Assay results: US11084829B2, “Ubiquitin-specific-processing protease 7 (USP7) modulators and uses thereof” (RAPT THERAPEUTICS, INC., priority 2018, dated 2021)

molecular target: USP7 (Homo sapiens, UniProt Q93009); assay: USP7 inhibitory potency (IC50); type: biochemical
Method: Activity for compounds described herein is provided in Table 2, wherein potency levels are provided as follows: (Potency: USP7 IC50: A<0.01 μM; B=0.01-0.1 μM; C=>0.1 μM.

Sequence of USP7 (Q93009 whole entry): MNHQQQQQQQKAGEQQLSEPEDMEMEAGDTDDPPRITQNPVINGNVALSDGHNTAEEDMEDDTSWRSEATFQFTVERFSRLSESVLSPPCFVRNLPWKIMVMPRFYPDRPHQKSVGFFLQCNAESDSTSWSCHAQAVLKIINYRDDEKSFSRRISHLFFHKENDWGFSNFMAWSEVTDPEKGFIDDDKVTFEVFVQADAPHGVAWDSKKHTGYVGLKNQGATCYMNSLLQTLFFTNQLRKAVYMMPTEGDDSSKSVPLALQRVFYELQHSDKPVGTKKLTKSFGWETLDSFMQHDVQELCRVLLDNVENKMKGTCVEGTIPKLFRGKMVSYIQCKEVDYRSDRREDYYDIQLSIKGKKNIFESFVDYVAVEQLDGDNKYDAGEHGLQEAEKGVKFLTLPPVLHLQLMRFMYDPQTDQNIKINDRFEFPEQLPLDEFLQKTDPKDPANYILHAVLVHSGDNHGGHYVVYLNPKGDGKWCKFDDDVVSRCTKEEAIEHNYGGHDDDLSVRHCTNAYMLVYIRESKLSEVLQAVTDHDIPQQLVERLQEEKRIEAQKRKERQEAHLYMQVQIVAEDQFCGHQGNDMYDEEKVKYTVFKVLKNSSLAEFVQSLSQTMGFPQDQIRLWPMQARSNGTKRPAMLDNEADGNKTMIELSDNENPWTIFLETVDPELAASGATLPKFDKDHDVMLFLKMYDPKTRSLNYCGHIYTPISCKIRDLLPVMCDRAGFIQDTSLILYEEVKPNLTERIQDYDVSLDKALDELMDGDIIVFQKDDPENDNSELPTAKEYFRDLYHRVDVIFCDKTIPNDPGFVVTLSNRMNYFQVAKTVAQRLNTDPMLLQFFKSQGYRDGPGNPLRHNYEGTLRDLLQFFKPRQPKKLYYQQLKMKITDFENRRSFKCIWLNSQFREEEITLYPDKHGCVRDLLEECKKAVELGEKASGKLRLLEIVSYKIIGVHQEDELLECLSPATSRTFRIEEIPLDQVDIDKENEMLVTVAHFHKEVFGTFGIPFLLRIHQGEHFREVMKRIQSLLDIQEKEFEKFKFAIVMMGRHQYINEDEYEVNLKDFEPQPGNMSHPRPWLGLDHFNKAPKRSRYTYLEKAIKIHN

| Structure (SMILES) | IC50 [nM] |
| --- | --- |
| Cc1cc(Cl)cc(-c2ccnc3cc(CN4C(=O)CCC4=O)sc23)c1CC1CNCC(C)(C)O1 (centres unmarked) [Example 119, 1-((7-(5-chloro-2-((6,6-dimethylmorpholin-2-yl)methyl)-3-methylphenyl)thieno[3,2-b]pyridin-2-yl)methyl)pyrrolidine-2,5-dione] | < 10 |
| Cc1cc(Cl)cc(-c2ccnc3cc(Cn4c(=O)ccn(CC(F)(F)F)c4=O)sc23)c1CN1CCNCC1 [Example 2, 3-((7-(5-chloro-3-methyl-2-(piperazin-1-ylmethyl)phenyl)thieno[3,2-b]pyridin-2-yl)methyl)-1-(2,2,2-trifluoroethyl)pyrimidine-2,4(1H,3H)-dione] | < 10 |
| Cc1cc(Cl)cc(-c2ccnc3cc(CN4C(=O)C5CC5C4=O)sc23)c1CC1CNCCS1 (centres unmarked) [Example 113, 3-((7-(5-chloro-3-methyl-2-(thiomorpholin-2-ylmethyl)phenyl)thieno[3,2-b]pyridin-2-yl)methyl)-3-azabicyclo[3.1.0]hexane-2,4-dione] | < 10 |
| Cc1cc(Cl)cc(-c2ncnc3cc(CN4C(=O)C5CC5C4=O)sc23)c1CC1CNCC2(CC2)O1 (centres unmarked) [Example 208, 3-((4-(2-((4-oxa-7-azaspiro[2.5]octan-5-yl)methyl)-5-chloro-3-methylphenyl)thieno[3,2-d]pyrimidin-6-yl)methyl)-3-azabicyclo[3.1.0]hexane-2,4-dione] | < 10 |
| Cc1cc(Cl)cc(-c2ncnc3cc(CN4C(=O)C5C(C4=O)C5(C)C)sc23)c1CC1(C)CNCCO1 (centres unmarked) [Example 157, 3-((4-(5-chloro-3-methyl-2-((2-methylmorpholin-2-yl)methyl)phenyl)thieno[3,2-d]pyrimidin-6-yl)methyl)-6,6-dimethyl-3-azabicyclo[3.1.0]hexane-2,4-dione] | 10 to 100 |
| Cc1cc(Cl)cc(-c2ccnc3cc(Cn4c(=O)ccn(CC(F)(F)F)c4=O)sc23)c1CN1CCNC(=O)C1 [Example 1, 3-((7-(5-chloro-3-methyl-2-((3-oxopiperazin-1-yl)methyl)phenyl)thieno[3,2-b]pyridin-2-yl)methyl)-1-(2,2,2-trifluoroethyl)pyrimidine-2,4(1H,3H)-dione] | > 100 |
| Cc1cc(Cl)cc(-c2ccnc3cc(CN4C(=O)C5CC5C4=O)sc23)c1C[C@H]1O[C@H](C)CNC1=O (stereo partly drawn) [Example 105, 3-((7-(5-chloro-3-methyl-2-(((2R,6R)-6-methyl-3-oxomorpholin-2-yl)methyl)phenyl)thieno[3,2-b]pyridin-2-yl)methyl)-3-azabicyclo[3.1.0]hexane-2,4-dione] | > 100 |
| Cc1cc(Cl)cc(-c2ncnc3cc(CN4CCCC4=O)sc23)c1CN1C[C@@H](C)NC[C@@H]1C [Example 81, 1-((4-(5-chloro-2-(((2S,5R)-2,5-dimethylpiperazin-1-yl)methyl)-3-methylphenyl)thieno[3,2-d]pyrimidin-6-yl)methyl)pyrrolidin-2-one] | > 100 |
| Cc1cc(Cl)cc(-c2ncnc3cc(CN4C(=O)CN(C)C4=O)sc23)c1CN1C[C@@H](C)NC[C@@H]1C [Example 80, 3-((4-(5-chloro-2-(((2S,5R)-2,5-dimethylpiperazin-1-yl)methyl)-3-methylphenyl)thieno[3,2-d]pyrimidin-6-yl)methyl)-1-methylimidazolidine-2,4-dione] | < 10 |
| CN1CCC(=O)N(Cc2cc3nccc(-c4cc(Cl)cc(Cl)c4CC4CNCCO4)c3s2)C1=O (centres unmarked) [Example 130, 3-((7-(3,5-dichloro-2-(morpholin-2-ylmethyl)phenyl)thieno[3,2-b]pyridin-2-yl)methyl)-1-methyldihydropyrimidine-2,4(1H,3H)-dione] | < 10 |
| Cc1cc(Cl)cc(-c2ccnc3cc(CN4C(=O)C5C(C4=O)C5(C)C)sc23)c1CC1OCCNC1=O (centres unmarked) [Example 101, 3-((7-(5-chloro-3-methyl-2-((3-oxomorpholin-2-yl)methyl)phenyl)thieno[3,2-b]pyridin-2-yl)methyl)-6,6-dimethyl-3-azabicyclo[3.1.0]hexane-2,4-dione] | 10 to 100 |
| Cc1cc(Cl)cc(-c2ccnc3cc(CN4C(=O)C5C(C4=O)C5(C)C)sc23)c1CN1CCNC[C@@H]1C (stereo partly drawn) [Example 20, 3-((7-(5-chloro-3-methyl-2-(((S)-2-methylpiperazin-1-yl)methyl)phenyl)thieno[3,2-b]pyridin-2-yl)methyl)-6,6-dimethyl-3-azabicyclo[3.1.0]hexane-2,4-dione] | < 10 |
| Cc1cc(Cl)cc(-c2ncnc3cc(CN4C(=O)C5CC5C4=O)sc23)c1CN1CCN(C)C[C@@H]1C (stereo partly drawn) [Example 55, 3-((4-(5-chloro-2-(((S)-2,4-dimethylpiperazin-1-yl)methyl)-3-methylphenyl)thieno[3,2-d]pyrimidin-6-yl)methyl)-3-azabicyclo[3.1.0]hexane-2,4-dione] | 10 to 100 |
| CC1(C)CNCC(Cc2c(Cl)cc(Cl)cc2-c2ccnc3cc(CN4C(=O)C5CC5C4=O)sc23)O1 (centres unmarked) [Example 139, 3-((7-(3,5-dichloro-2-((6,6-dimethylmorpholin-2-yl)methyl)phenyl)thieno[3,2-b]pyridin-2-yl)methyl)-3-azabicyclo[3.1.0]hexane-2,4-dione] | < 10 |
| C[C@H]1CNCCN1Cc1ccc(F)cc1-c1ncnc2cc(CN3C(=O)C4CC4C3=O)sc12 (stereo partly drawn) [Example 63, 3-((4-(5-fluoro-2-(((S)-2-methylpiperazin-1-yl)methyl)phenyl)thieno[3,2-d]pyrimidin-6-yl)methyl)-3-azabicyclo[3.1.0]hexane-2,4-dione] | > 100 |
| Cc1cc(Cl)cc(-c2ncnc3cc(Cn4c(=O)ccn(C)c4=O)sc23)c1CN1C[C@@H](C)NC[C@@H]1C [Example 66, 3-((4-(5-chloro-2-(((2S,5R)-2,5-dimethylpiperazin-1-yl)methyl)-3-methylphenyl)thieno[3,2-d]pyrimidin-6-yl)methyl)-1-methylpyrimidine-2,4(1H,3H)-dione] | < 10 |
| Cc1cc(Cl)cc(-c2ccnc3cc(CN4C(=O)C5CC5C4=O)sc23)c1CC1CNCC2(COC2)O1 (centres unmarked) [Example 138, 3-((7-(2-((2,5-dioxa-8-azaspiro[3.5]nonan-6-yl)methyl)-5-chloro-3-methylphenyl)thieno[3,2-b]pyridin-2-yl)methyl)-3-azabicyclo[3.1.0]hexane-2,4-dione] | < 10 |

Now from value to molecule:

| IC50 [nM] | Structure (SMILES) |
| --- | --- |
| > 100 | Cc1cc(Cl)cc(-c2ncnc3ccsc23)c1CC1CNCCO1 (centres unmarked) [Example 173, 2-(4-chloro-2-methyl-6-(thieno[3,2-d]pyrimidin-4-yl)benzyl)morpholine] |
| < 10 | Cc1cc(Cl)cc(-c2ncnc3cc(CN4C(=O)OC[C@@H]4CF)sc23)c1C[C@@H]1CNCC(C)(C)O1 [Example 263, (R)-3-((4-(5-chloro-2-(((R)-6,6-dimethylmorpholin-2-yl)methyl)-3-methylphenyl)thieno[3,2-d]pyrimidin-6-yl)methyl)-4-(fluoromethyl)oxazolidin-2-one] |
| < 10 | Cc1cc(Cl)cc(-c2ncnc3cc(CN4C(=O)NC(C)C4=O)sc23)c1C[C@@H]1CNCCO1 (stereo partly drawn) [Example 244, 3-((4-(5-chloro-3-methyl-2-(((R)-morpholin-2-yl)methyl)phenyl)thieno[3,2-d]pyrimidin-6-yl)methyl)-5-methylimidazolidine-2,4-dione] |
| < 10 | Cc1cc(Cl)cc(-c2ncnc3cc(CN4C(=O)CC[C@@H]4C(F)F)sc23)c1CC1CNCC(C)(C)O1 (stereo partly drawn) [Example 230, (5R)-1-((4-(5-chloro-2-((6,6-dimethylmorpholin-2-yl)methyl)-3-methylphenyl)thieno[3,2-d]pyrimidin-6-yl)methyl)-5-(difluoromethyl)pyrrolidin-2-one] |
| > 100 | Cc1cc(Cl)cc(-c2ncnc3cc(CN4CCCC4=O)sc23)c1CC1CNCCO1 (centres unmarked) [Example 174, 1-((4-(5-chloro-3-methyl-2-(morpholin-2-ylmethyl)phenyl)thieno[3,2-d]pyrimidin-6-yl)methyl)pyrrolidin-2-one] |
| < 10 | Cc1cc(Cl)cc(-c2ncnc3cc(Cn4ccc(=O)[nH]c4=O)sc23)c1C[C@@H]1CNCC(C)(C)O1 [Example 267, (R)-1-((4-(5-chloro-2-((6,6-dimethylmorpholin-2-yl)methyl)-3-methylphenyl)thieno[3,2-d]pyrimidin-6-yl)methyl)pyrimidine-2,4(1H,3H)-dione] |
| < 10 | Cc1cc(Cl)cc(-c2ncnc3cc(CN4C(=O)CSC4=O)sc23)c1CC1CNCCO1 (centres unmarked) [Example 171, 3-((4-(5-chloro-3-methyl-2-(morpholin-2-ylmethyl)phenyl)thieno[3,2-d]pyrimidin-6-yl)methyl)thiazolidine-2,4-dione] |
| < 10 | Cc1cc(Cl)cc(-c2ncnc3cc(CN4C(=O)C5C(C4=O)C5(C)C)sc23)c1C[C@@H]1CNCCO1 (stereo partly drawn) [Example 196, 3-((4-(5-chloro-3-methyl-2-(((R)-morpholin-2-yl)methyl)phenyl)thieno[3,2-d]pyrimidin-6-yl)methyl)-6,6-dimethyl-3-azabicyclo[3.1.0]hexane-2,4-dione] |
| < 10 | Cc1cc(Cl)cc(-c2ccnc3cc([C@H](C)N4C(=O)C5C(C4=O)C5(C)C)sc23)c1C[C@@H]1CNCCO1 (stereo partly drawn) [Example 133, 3-((S)-1-(7-(5-chloro-3-methyl-2-(((R)-morpholin-2-yl)methyl)phenyl)thieno[3,2-b]pyridin-2-yl)ethyl)-6,6-dimethyl-3-azabicyclo[3.1.0]hexane-2,4-dione] |
| 10 to 100 | Cc1cc(Cl)cc(-c2ncnc3cc(CN4C(=O)CN(CCCC(=O)O)C4=O)sc23)c1C[C@@H]1CNCCO1 [Example 264, (R)-4-(3-((4-(5-chloro-3-methyl-2-(morpholin-2-ylmethyl)phenyl)thieno[3,2-d]pyrimidin-6-yl)methyl)-2,4-dioxoimidazolidin-1-yl)butanoic acid] |
| 10 to 100 | Cc1cc(Cl)cc(-c2ncnc3cc(CN4C(=O)CC[C@@H]4CO)sc23)c1CC1CNCC(C)(C)O1 (stereo partly drawn) [Example 206, (5R)-1-((4-(5-chloro-2-((6,6-dimethylmorpholin-2-yl)methyl)-3-methylphenyl)thieno[3,2-d]pyrimidin-6-yl)methyl)-5-(hydroxymethyl)pyrrolidin-2-one] |
| < 10 | Cc1cc(Cl)cc(-c2ccnc3cc(CN4C(=O)C5CCCN5C4=O)sc23)c1CC1CNCCO1 (centres unmarked) [Example 116, 2-((7-(5-chloro-3-methyl-2-(morpholin-2-ylmethyl)phenyl)thieno[3,2-b]pyridin-2-yl)methyl)tetrahydro-1H-pyrrolo[1,2-c]imidazole-1,3(2H)-dione] |
